Source: patent US11780840B2 (Incyte Corporation, priority 2020, dated 2023)

Legend:
[1] = target: T1, pseudo-kinase domain (JH2, amino-acids 536-812 with 3 surface mutations W659A, W777A, F794H) of human Wild Type JAK2 (Homo sapiens, UniProt O60674, F794H/W659A/W777A); experiment: JAK2 LanthaScreen JH2-WT Binding Assay; conditions: JAK2 JH2-WT (0.145 nM), 50 nM Fluorescent JAK2-JH2 Tracer, 1 hour at 25° C.; read-out: JH2 BIND WT
T1 construct: pseudo-kinase domain (JH2, amino-acids 536-812 with 3 surface mutations W659A, W777A, F794H); His (C); Avi (biotinylated) (C); purchased BPS Bioscience 79463; host or cells: baculovirus expression system
T1 sequence (O60674 536-812 W659A/W777A/F794H): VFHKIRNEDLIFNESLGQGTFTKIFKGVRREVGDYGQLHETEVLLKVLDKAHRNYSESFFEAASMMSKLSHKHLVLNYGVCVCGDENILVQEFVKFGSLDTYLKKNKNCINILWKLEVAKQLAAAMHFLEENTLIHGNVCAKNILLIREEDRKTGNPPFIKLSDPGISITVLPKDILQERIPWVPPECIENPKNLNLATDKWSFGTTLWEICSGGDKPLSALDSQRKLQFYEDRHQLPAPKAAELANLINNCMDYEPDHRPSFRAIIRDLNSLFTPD
Procedure, shortened: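 Biotinylated C-terminal His-Avi-tagged JH2 (residues 536-812, baculovirus-expressed) at 0.145 nM was incubated with serially diluted compounds, 50 nM fluorescent JAK2-JH2 tracer and 0.25 nM streptavidin-Tb cryptate in pH 7.5 Tris buffer with MgCl2, Brij-35, BSA, EGTA, glycerol and DTT. LanthaScreen TR-FRET was read after 1 hour at 25° C; IC50 came from four-parameter fits.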

[2] = target: T2, catalytic domain (JH1, amino acids 826-1132) of human JAK2 (Homo sapiens, UniProt O60674); experiment: JAK2 LanthaScreen JH1 Binding Assay; conditions: JAK2 JH1 (1.5 nM), 50 nM fluorescent JAK2-JH1 tracer, 2 hours at 25° C.; read-out: JH1 BIND
T2 construct: catalytic domain (JH1, amino acids 826-1132) of human JAK2; FLAG (N); purchased Carna Biosciences 08-445-20N; host or cells: baculovirus expression system
T2 sequence (O60674 826-1132): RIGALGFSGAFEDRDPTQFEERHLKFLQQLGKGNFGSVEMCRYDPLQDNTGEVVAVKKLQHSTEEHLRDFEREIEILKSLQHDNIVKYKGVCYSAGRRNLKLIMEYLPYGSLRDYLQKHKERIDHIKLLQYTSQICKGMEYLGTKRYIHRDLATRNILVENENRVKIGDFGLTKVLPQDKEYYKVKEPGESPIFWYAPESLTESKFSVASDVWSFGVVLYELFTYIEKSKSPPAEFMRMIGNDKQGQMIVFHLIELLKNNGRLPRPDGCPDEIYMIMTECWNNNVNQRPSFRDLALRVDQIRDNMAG
Procedure, shortened: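 TR-FRET tracer-displacement format: compound IC50 from four-parameter curves after 2 h at 25° C. Reaction held 1.5 nM biotinylated, FLAG-tagged JH1 (aa 826-1132), 50 nM tracer, 0.5 nM Streptavidin-Tb, pH 7.5 Tris buffer; 2 mM ATP set nonspecific background.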

[3] = target: T3, pseudo-kinase domain (JH2, amino-acids 536-812 with 3 surface mutations W659A, W777A, F794H) of human V617F mutant JAK2 (Homo sapiens, UniProt O60674, F794H/V617F/W659A/W777A); experiment: JAK2 LanthaScreen JH2-V617F Binding Assay; conditions: JAK2 JH2-V617F (0.26 nM), 50 nM Fluorescent JAK2-JH2 Tracer, 1 hour at 25° C.; read-out: JH2 BIND V617F
T3 construct: pseudo-kinase domain (JH2, amino-acids 536-812 with 3 surface mutations W659A, W777A, F794H); His (C); Avi (biotinylated) (C); purchased BPS Bioscience 79498; host or cells: baculovirus expression system
T3 sequence (O60674 536-812 V617F/W659A/W777A/F794H): as the sequence (O60674 536-812 W659A/W777A/F794H) above, with V82F counted along it
Procedure, shortened: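 TR-FRET tracer displacement: 0.26 nM protein, 50 nM tracer, 0.25 nM SA-Tb, 50 mM Tris pH 7.5, 10 mM MgCl2, 5 mM DTT; 1 h, 25° C. NSB = 2 mM ATP. IC50, 4-parameter curve.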

Row | Structure (SMILES) | IC50 [1] [nM] | IC50 [2] [nM] | IC50 [3] [nM]
1 | CC(C)n1c(=O)n(C)c2cnc3[nH]c(Cc4ccc(C#N)cc4)c(-c4ccc5c(cnn5C)c4)c3c21 [Example 96, 4-((1-Isopropyl-3-methyl-8-(1-methyl-1H-indazol-5-yl)-2-oxo-1,2,3,6-tetrahydroimidazo [4,5-d]pyrrolo[2,3-b]pyridin-7-yl)methyl) benzonitrile] | > 1000 | > 1000 | > 1000
2 | CCc1[nH]c2ncc3c(c2c1-c1ccc2c(cnn2C)c1)n(C1CCCC1)c(=O)n3C [Example 97, 1-Cyclopentyl-7-ethyl-3-methyl-8-(1-methyl-1H-indazol-5-yl)-3,6-dihydroimidazo[4,5-d]pyrrolo[2,3-b]pyridin-2(1H)-one] | 10 to 100 | > 1000 | 100 to 500
3 | Cn1ncc2cc(-c3c(C(=O)NC4CC4)[nH]c4ncc5c(c34)n(C3CCCC3)c(=O)n5C)ccc21 [Example 98, 1-Cyclopentyl-N-cyclopropyl-3-methyl-8-(1-methyl-1H-indazol-5-yl)-2-oxo-1,2,3,6-tetrahydroimidazo [4,5-d]pyrrolo[2,3-b]pyridine-7-carboxamide] | 10 to 100 | > 1000 | 10 to 100
4 | Cn1ncc2cc(-c3c(S(C)(=O)=O)[nH]c4ncc5c(c34)n(C3CCCC3)c(=O)n5C)ccc21 [Example 99, 1-Cyclopentyl-3-methyl-8-(1-methyl-1H-indazol-5-yl)-7-(methylsulfonyl)-3,6-dihydroimidazo [4,5-d]pyrrolo[2,3-b] pyridin-2(1H)-one] | 500 to 1000 | > 1000 | 500 to 1000
5 | CC(C)n1c(=O)n(C)c2cnc3[nH]c(-c4cnn(C)c4)c(C#Cc4ccccc4)c3c21 [Example 100, 1-Isopropyl-3-methyl-7-(1-methyl-1H-pyrazol-4-yl)-8-(phenylethynyl)-3,6-dihydroimidazo[4,5-d]pyrrolo[2,3-b]pyridin-2(1H)-one] | 100 to 500 | 500 to 1000 | 100 to 500
6 | Cn1cc(-c2[nH]c3ncc4c(c3c2-c2ccc3c(cnn3C)c2)n([C@H]2C[C@@H](CC#N)C2)c(=O)n4C)cn1 [Example 101, 2-((1S,3S)-3-(3-Methyl-8-(1-methyl-1H-indazol-5-yl)-7-(1-methyl-1H-pyrazol-4-yl)-2-oxo-3,6-dihydroimidazo[4,5-d]pyrrolo[2,3-b]pyridin-1(2H)-yl)cyclobutyl)acetonitrile] | ≤ 10 | 100 to 500 | ≤ 10
7 | Cn1cc(-c2[nH]c3ncc4c(c3c2-c2ccc3c(cnn3C)c2)n([C@H]2CC[C@@H](CC#N)CC2)c(=O)n4C)cn1 [Example 102, 2-((1S,4S)-4-(3-Methyl-8-(1-methyl-1H-indazol-5-yl)-7-(1-methyl-1H-pyrazol-4-yl)-2-oxo-3,6-dihydroimidazo[4,5-d]pyrrolo[2,3-b]pyridin-1(2H)-yl)cyclohexyl)acetonitrile] | ≤ 10 | 10 to 100 | ≤ 10
8 | Cn1ncc2cc(-c3c(-c4cnn(CC(C)(C)O)c4)[nH]c4ncc5c(c34)n([C@H]3CC[C@@H](CC#N)CC3)c(=O)n5C)ccc21 [Example 103, 2-((1S,4S)-4-(7-(1-(2-Hydroxy-2-methylpropyl)-1H-pyrazol-4-yl)-3-methyl-8-(1-methyl-1H-indazol-5-yl)-2-oxo-3,6-dihydroimidazo[4,5-d]pyrrolo[2,3-b]pyridin-1(2H)-yl)cyclohexyl)acetonitrile] | ≤ 10 | 100 to 500 | ≤ 10
9 | COC(=O)N[C@H]1C[C@@H](n2c(=O)n(C)c3cnc4[nH]c(-c5cnn(C)c5)c(-c5ccc6c(cnn6C)c5)c4c32)C1 [Example 104, Methyl ((1S,3S)-3-(3-methyl-8-(1-methyl-1H-indazol-5-yl)-7-(1-methyl-1H-pyrazol-4-yl)-2-oxo-3,6-dihydroimidazo[4,5-d]pyrrolo[2,3-b]pyridin-1(2H)-yl)cyclobutyl)carbamate] | ≤ 10 | 500 to 1000 | ≤ 10
10 | CCOC(=O)N[C@H]1C[C@@H](n2c(=O)n(C)c3cnc4[nH]c(-c5cnn(C)c5)c(-c5ccc(C#N)cc5)c4c32)C1 [Example 105, Ethyl ((1S,3S)-3-(8-(4-cyanophenyl)-3-methyl-7-(1-methyl-1H-pyrazol-4-yl)-2-oxo-3,6-dihydroimidazo[4,5-d]pyrrolo[2,3-b]pyridin-1(2H)-yl)cyclobutyl)carbamate] | ≤ 10 | > 1000 | ≤ 10
11 | CCOC(=O)N[C@H]1C[C@@H](n2c(=O)n(C)c3cnc4[nH]c(-c5cnn(C)c5)c(-c5ccc(OC)cc5)c4c32)C1 [Example 106, Ethyl ((1S,3S)-3-(8-(4-methoxyphenyl)-3-methyl-7-(1-methyl-1H-pyrazol-4-yl)-2-oxo-3,6-dihydroimidazo[4,5-d]pyrrolo[2,3-b]pyridin-1(2H)-yl)cyclobutyl)carbamate] | ≤ 10 | > 1000 | ≤ 10
12 | CC(C)n1c(=O)n(C)c2cnc3[nH]c(-c4cnn(C)c4)c(C4CCN(C(=O)Cc5ccc(S(C)(=O)=O)cc5)CC4)c3c21 [Example 107, 1-Isopropyl-3-methyl-7-(1-methyl-1H-pyrazol-4-yl)-8-(1-(2-(4-(methylsulfonyl)phenyl)acetyl)piperidin-4-yl)-3,6-dihydroimidazo[4,5-d]pyrrolo[2,3-b]pyridin-2(1H)-one] | 10 to 100 | 100 to 500 | 10 to 100
13 | COc1nn(C)cc1-c1[nH]c2ncc3c(c2c1-c1ccc2c(cnn2C)c1)n([C@H]1CC[C@@H](CC#N)CC1)c(=O)n3C [Example 108, 2-((1S,4S)-4-(7-(3-methoxy-1-methyl-1H-pyrazol-4-yl)-3-methyl-8-(1-methyl-1H-indazol-5-yl)-2-oxo-3,6-dihydroimidazo[4,5-d]pyrrolo[2,3-b]pyridin-1(2H)-yl)cyclohexyl)acetonitrile] | ≤ 10 | > 1000 | ≤ 10
14 | [2H]C([2H])([2H])n1ncc2cc(-c3c(-c4cn(C)nc4OC)[nH]c4ncc5c(c34)n(C3CCOCC3)c(=O)n5C)ccc21 [Example 109, 7-(3-Methoxy-1-methyl-1H-pyrazol-4-yl)-3-methyl-8-(1-(methyl-d3)-1H-indazol-5-yl)-1-(tetrahydro-2H-pyran-4-yl)-3,6-dihydroimidazo[4,5-d]pyrrolo[2,3-b]pyridin-2(1H)-one] | ≤ 10 | > 1000 | ≤ 10
15 | [2H]C([2H])([2H])n1ncc2cc(-c3c(-c4cnn5cccnc45)[nH]c4ncc5c(c34)n(C3CCOCC3)c(=O)n5C)ccc21 [Example 110, 3-Methyl-8-(1-(methyl-d3)-1H-indazol-5-yl)-7-(pyrazolo[1,5-a]pyrimidin-3-yl)-1-(tetrahydro-2H-pyran-4-yl)-3,6-dihydroimidazo[4,5-d]pyrrolo[2,3-b]pyridin-2(1H)-one] | ≤ 10 | > 1000 | ≤ 10
16 | Cn1cc(-c2[nH]c3ncc4c(c3c2-c2ccc3c(cnn3C)c2)n(C2CCN(C3(CC#N)CCC3)CC2)c(=O)n4C)cn1 [Example 111, 2-(1-(4-(3-Methyl-8-(1-methyl-1H-indazol-5-yl)-7-(1-methyl-1H-pyrazol-4-yl)-2-oxo-3,6-dihydroimidazo[4,5-d]pyrrolo[2,3-b]pyridin-1(2H)-yl)piperidin-1-yl)cyclobutyl)acetonitrile] | ≤ 10 | 500 to 1000 | ≤ 10
17 | Cn1cc(-c2[nH]c3ncc4c(c3c2-c2ccc(C#N)cc2)n(C2CCC3(CC2)CN(S(C)(=O)=O)C3)c(=O)n4C)cn1 [Example 112, 4-(3-Methyl-7-(1-methyl-1H-pyrazol-4-yl)-1-(2-(methylsulfonyl)-2-azaspiro[3.5]nonan-7-yl)-2-oxo-1,2,3,6-tetrahydroimidazo[4,5-d]pyrrolo[2,3-b]pyridin-8-yl)benzonitrile] | ≤ 10 | 500 to 1000 | ≤ 10
